Like-named read-outs stand apart in the source and are kept apart here.
What was measured:
HLA-DRB1*01:01 = HLA-DRB1*01:01 (Homo sapiens, UniProt P01903+P01911, A100R/D57E/F55L/F60I/F76Y/I96L/L162R/M171V/P40L/Q125E/R42F/V115G/Y59C); assay: Peptide-MHC binding assay: conjugate incubated with recombinant MHC, captured with anti-HLA-DR antibody (L243) beads, qPCR
HLA-DR3 [1] = tested on: HLA-DR3
HLA-DR1 [2] = molecular target: T1, HLA-DR1 (Homo sapiens, UniProt P01903+P01911, A100R/D57E/F55L/F60I/F76Y/I96L/L162R/M171V/P40L/Q125E/R42F/V115G/Y59C); conditions: cited from earlier work; for known binding of peptide to HLA-DR1: Sidney et al., 2002
HLA-DR3 [3] = conditions: cited from earlier work; for known binding of peptide to HLA-DR3: Sidney et al., 2002
HLA-DR1 [4] = molecular target: T1, HLA-DR1; type: binding; set-up: biotin (biotinylated)
HLA-DR2 = HLA-DR2 (Homo sapiens, UniProt P01903+P01911); conditions: cited from earlier work

Row | Substance | enrichment in the DR1 condition compared to beads only (HLA-DRB1*01:01) | binding of peptide-cDNA conjugate to MHC molecule (HLA-DR3 [1]) | known binding of peptide to HLA-DR1 (HLA-DR1 [2]) | known binding of peptide to HLA-DRB1*01:01 (HLA-DR1 [2]) | known binding of peptide to HLA-DR3 (HLA-DR3 [3]) | known affinity of peptide for the HLA-DR1 molecule (HLA-DR1 [2]) | affinity of peptide for purified DR2 (HLA-DR2) | other results
1 | YKTIAFDEEARR | no such enrichment | bound to the expected MHC molecule | without cross-binding | not bind | bind |  |  | enrichment of signal in the DR1 condition compared to beads only (DR1): ~1000 fold; known binding of peptide to HLA-DRB1*03:01 (HLA-DR3 [3]): bind; binding of peptide-cDNA conjugate to MHC molecule (HLA-DR1 [4]; biotinylated HLA-DR1, overnight incubation, gel electrophoresis and qPCR readouts): not to the other HLA-DR family member
2 | YPKAVKQNTLKLAT [YP (Y4A)] |  |  |  |  |  | low |  | profile of binding to HLA-DR1 (HLA-DR1 [4]; conjugates incubated and detected as a mixture (3-plex), qPCR): low; profile of binding to HLA-DR1 (HLA-DR1 [4]; conjugates present individually (1-plex), qPCR): low
3 | MBP(85-99): peptide of human myelin basic protein, residues 85-99 (PGSRPHLIRLFSRDA; UniProt P02686 85-99, looked up, fragment) |  |  |  |  |  |  | high affinity | 
4 | MBP(148-162): peptide of human myelin basic protein, residues 148-162 (YLATASTMDHARHGF; UniProt P02686 148-162, looked up, fragment) |  |  |  |  |  |  | lower but significant | 
5 | YPKYVKQNTLKLAT | ~1000 fold | not to the other HLA-DR family member | bind | bind | without cross-binding | high |  | enrichment of conjugate binding to DR1 over beads (HLA-DRB1*01:01): ~100 fold; binding of peptide-cDNA conjugate to MHC molecule (HLA-DR1 [4]): bound to the expected MHC molecule; profile of binding to HLA-DR1 (HLA-DR1 [4]): high
